≈ marks a conversion by molar mass, not a printed value.
Key:
axillary malodor [1] = assay: Example 6: axillary malodor evaluation by odor judges, 1.0% β-chloro-D-alanine vs 1.0% β-chloro-L-alanine; assay type: in vivo, human; set-up: key to 24 Hour Drop from Control / A-B (drop), D-BCA minus L-BCA: drop in odor score on 0 (no odor) to 10 (very intense) scale; details: 1.0% in 60% propylene glycol/40% water
Protocol: (§1) BCA was dissolved in a mixture of 60% propylene glycol and 40% water at a final concentration of 1.0%. The pH of the solution was adjusted to about 6.25 with 10 N NaOH. Thirty-nine female panelists applied 0.5 ml of this test solution to either the right or left axilla and 0.5 ml of a comparative solution of 60% propylene glycol and 40% water to the other. The side of application of the test or comparative solutions was assigned in a random fashion. Twenty-four hours after application, each side of the panelists' axilla was judged for odor by a panel of trained odor judges on a scale of 0 (no odor) to 10 (very intense, disagreeable odor). This procedure was performed on four consecutive days. […] Analysis of the clinical results is summarized below:
A test product containing 1.0% β-chloro-D-alanine (BCA)[…] in 60% propylene glycol/40% water was compared to a comparative product containing 1.0% β-chloro-L-alanine in 60% propylene glycol/40% water by application to 50 female test subjects according to the procedure of Example 4.

[2] = biological target: T1, serine-palmitoyl transferase (Mus musculus, UniProt P97363); details: topical application; Holleran et al. 1991; cited from earlier work
T1 construct: host or cells: skin, in vivo after topical application
T1 sequence (P97363 1-560): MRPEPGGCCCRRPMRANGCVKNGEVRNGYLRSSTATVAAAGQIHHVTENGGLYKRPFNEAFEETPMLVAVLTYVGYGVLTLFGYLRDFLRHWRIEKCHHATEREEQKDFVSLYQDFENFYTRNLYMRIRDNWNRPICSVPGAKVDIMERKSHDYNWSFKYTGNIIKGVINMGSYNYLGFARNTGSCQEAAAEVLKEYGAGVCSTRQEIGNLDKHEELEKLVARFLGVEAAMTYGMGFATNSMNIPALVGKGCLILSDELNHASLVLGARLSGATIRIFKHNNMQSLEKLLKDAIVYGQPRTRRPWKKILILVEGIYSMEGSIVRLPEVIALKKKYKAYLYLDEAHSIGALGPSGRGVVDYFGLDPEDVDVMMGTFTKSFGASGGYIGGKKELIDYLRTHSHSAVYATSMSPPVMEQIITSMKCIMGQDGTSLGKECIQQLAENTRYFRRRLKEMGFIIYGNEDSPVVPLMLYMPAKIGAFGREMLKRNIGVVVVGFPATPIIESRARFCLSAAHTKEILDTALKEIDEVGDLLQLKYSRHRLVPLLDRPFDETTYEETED
T1 sequence (O35704 1-473 partner): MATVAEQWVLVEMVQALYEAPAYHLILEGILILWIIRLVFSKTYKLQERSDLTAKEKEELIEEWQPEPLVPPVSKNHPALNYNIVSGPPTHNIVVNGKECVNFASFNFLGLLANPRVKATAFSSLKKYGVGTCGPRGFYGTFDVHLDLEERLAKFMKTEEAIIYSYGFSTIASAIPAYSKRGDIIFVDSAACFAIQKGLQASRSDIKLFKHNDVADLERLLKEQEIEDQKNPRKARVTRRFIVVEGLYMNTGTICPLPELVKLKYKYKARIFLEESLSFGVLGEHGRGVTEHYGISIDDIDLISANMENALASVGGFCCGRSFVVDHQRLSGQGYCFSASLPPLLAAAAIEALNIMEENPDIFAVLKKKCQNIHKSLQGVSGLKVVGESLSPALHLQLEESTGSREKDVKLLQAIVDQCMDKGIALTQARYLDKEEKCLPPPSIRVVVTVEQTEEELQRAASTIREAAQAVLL

[3] = topical application; Holleran et al. 1991; cited from earlier work
β-lyase = assay: Sniff vial test: malodor formation from precursors by whole Staphylococcus haemolyticus cells (beta-lyase inhibition); assay type: cell-based; details: whole Staphylococcus haemolyticus cells, sniff vial assay
Protocol: BCA was tested for its ability to prevent Staphylococcus haemolyticus from metabolizing sweat to form malodor. Log-phase cultures of Staphylococcus haemolyticus were incubated with various concentrations of BCA (31-0.625 mM) in phosphate buffer (pH 6.8) for 30 minutes at 35° C. The cell/BCA mixture was then added to a "sniff vial" containing malodor precursors and incubated at 35° C. for an additional 30 minutes. Malodor compounds were then extracted from the mixture with chloroform and malodor was judged by spotting 10 μl of chloroform extracts onto bibulous paper and smelling. […] In contrast, the β-lyase inhibitor aminooxyacetic acid (AOA) consistently prevents malodor in the above assay at concentrations of 5.0 mM.

[4] = Test of antimicrobial materials for deodorant activity; details: compared with currently available materials
Excerpt: Cosmetic Chemists, 19, 611-626 (1968) and Cowen, "Relative Merits of `In Use` and Laboratory Methods for the Evaluation of Antimicrobial Products, "J. Soc. Cosmetic Chemists, 25, 307-323 (1974).

[5] = tested on: Staphylococcus haemolyticus; assay: Minimum inhibitory concentration (MIC) in axillary bacteria, Staphylococcus strain; assay type: cell-based; details: overnight at 35° C., lowest concentration without turbidity, read-out: MIC
Protocol: (§2) In vitro experiments were conducted in order to determine the ability of several bacterial cell wall synthesis inhibitors to inhibit the growth of axillary bacteria. The minimum inhibitory concentrations (MIC) of β-chloro-D-alanine (BCA), and D-cycloserine were determined in Staphylococcus (Staphylococcus haemolyticus) and Coryneform strains of axillary bacteria as follows: Frozen stock cultures were thawed out and 50 μl of Staphylococcus haemolyticus or 100 μl of Coryneform bacteria were inoculated into 5.0 ml of nutrient media. Bacteria were incubated at 35° C. overnight to produce cultures in log phase growth. A series of tubes was set up into which serial dilutions of BCA or triclosan in nutrient media were added in the range of 0.1 to 0.0001 wt/v % (where 1 g/100 ml=1 wt/v %). The tubes were inoculated with 50 μl of log phase Staphylococcus haemolyticus or Coryneform cultures and incubated at 35° C. overnight. […] The minimum bactericidal concentration (MBC) was determined by adding 50 μl from each clear solution of the MIC experiment into 5.0 ml of fresh nutrient media and incubating overnight at 37° C. […] The MIC of BCA was thus determined to be 0.1 wt/v % and 0.001 wt/v % in Staphylococcus haemolyticus and Coryneforms, respectively. The MIC of D-cycloserine was thus determined to be 0.01 wt/v % and 0.005 wt/v % in Staphylococcus haemolyticus and Coryneforms, respectively. By comparison, the MIC of the common antibacterial deodorant compound triclosan is 0.01 wt/v % and 0.1 wt/v % in Staphylococcus haemolyticus and Coryneforms, respectively.

Coryneform bacteria = assay: Minimum inhibitory concentration (MIC) in axillary bacteria, Coryneform strain; assay type: cell-based, Coryneform strains of axillary bacteria; details: Coryneforms; overnight at 35° C.; lowest concentration without turbidity; read-out: MIC
Protocol: as §2

axillary malodor [6] = assay: Example 5: axillary malodor evaluation by odor judges, 1.0% D-cycloserine vs 0.3% triclosan; assay type: in vivo, human; set-up: key to Post-Application 24 Hour Drop from Control: drop in odor score vs control; scale 0 (no odor) to 10 (very intense); details: for Post-Application 24 Hour Drop from Control / Judges' Malodor Evaluation (score): 1.0% D-cycloserine, 0.3% triclosan; for Judges' Malodor Evaluation (score): scale 0 to 10
Protocol: as §1
A test product containing 1.0% D-cycloserine in 60% propylene glycol/40% water was compared to a product containing 0.3% triclosan in 60% propylene glycol/40% water by application to 60 test subjects according to the procedure of Example 4. […] All differences were highly significant.

Staphylococcus cells = details: as disclosed in U.S. Pat. No. 5,487,886; cited from earlier work

With `N[C@@H](CCl)C(=O)O` [β-chloro-L-alanine, reference compound] the “24 Hour Drop from Control” value (axillary malodor [1]; composite) was 1.083, the “24 Hour Drop from Control” value (axillary malodor [1]; post-application measurement 1) was 0.913 and the “24 Hour Drop from Control” value (axillary malodor [1]; post-application measurement 2) was 1.040. For the same compound, the “24 Hour Drop from Control” value (axillary malodor [1]; post-application measurement 3) was 1.013, the “24 Hour Drop from Control” value (axillary malodor [1]; post-application measurement 4) was 1.333 and the “Inhibition of serine-palmitoyl transferase in the skin” value [2] was “irreversibly inhibits”. The “Recovery of skin barrier function in vivo” value [3] was “alters recovery of skin barrier function”.

With `NOCC(=O)O` [AOA, aminooxyacetic acid, reference compound] the “Concentration that consistently prevents malodor” value (β-lyase) was 5.0 mM.

With `CC(=O)OCC(COC(C)=O)OC(C)=O` [triacetin] the Deodorant activity [4] was “no improvement over currently available materials was observed”.

With `Oc1cc(Cl)ccc1Oc1ccc(Cl)cc1Cl` [triclosan, reference compound] the MIC [5] was 100 µg/mL (≈ 345 µM), the MIC (Coryneform bacteria) was 1000 µg/mL (≈ 3450 µM) and the “Post-Application 24 Hour Drop from Control” value (shortened to “Post-Application 24 Hour Drop”) (axillary malodor [6]; composite) was 0.65. The “Judges' Malodor Evaluation (score)” value (axillary malodor [6]; composite) was 4.07, the “Post-Application 24 Hour Drop” value (axillary malodor [6]; measurement day 1) was 0.67 and the “Judges' Malodor Evaluation (score)” value (axillary malodor [6]; measurement day 1) was 4. The “Post-Application 24 Hour Drop” value (axillary malodor [6]; measurement day 2) was 0.46, the “Judges' Malodor Evaluation (score)” value (axillary malodor [6]; measurement day 2) was 4.26 and the “Post-Application 24 Hour Drop” value (axillary malodor [6]; measurement day 3) was 0.74. The “Judges' Malodor Evaluation (score)” value (axillary malodor [6]; measurement day 3) was 3.97, the “Post-Application 24 Hour Drop” value (axillary malodor [6]; measurement day 4) was 0.72 and the “Judges' Malodor Evaluation (score)” value (axillary malodor [6]; measurement day 4) was 4.

In the case of `NC1CONC1=O` [D-cycloserine], the MIC [5] is reported as 100 µg/mL (≈ 979 µM), the MIC (Coryneform bacteria) is reported as 50 µg/mL (≈ 490 µM) and the “Inhibition of axillary malodor, 1.0% D-cycloserine product versus 0.3% triclosan” value (axillary malodor [6]; all measurements and the composite, odor judges) is reported as “superior to 0.3% triclosan”. The “Post-Application 24 Hour Drop” value (axillary malodor [6]; composite) was 1.13, the “Judges' Malodor Evaluation (score)” value (axillary malodor [6]; composite) was 3.61 and the “Post-Application 24 Hour Drop” value (axillary malodor [6]; measurement day 1) was 1.1. For the same compound, the “Judges' Malodor Evaluation (score)” value (axillary malodor [6]; measurement day 1) was 3.64, the “Post-Application 24 Hour Drop” value (axillary malodor [6]; measurement day 2) was 0.99 and the “Judges' Malodor Evaluation (score)” value (axillary malodor [6]; measurement day 2) was 3.75. The “Post-Application 24 Hour Drop” value (axillary malodor [6]; measurement day 3) was 1.22, the “Judges' Malodor Evaluation (score)” value (axillary malodor [6]; measurement day 3) was 3.53 and the “Post-Application 24 Hour Drop” value (axillary malodor [6]; measurement day 4) was 1.22. The “Judges' Malodor Evaluation (score)” value (axillary malodor [6]; measurement day 4) was 3.52.

In the case of `CCCCCCCCCCCCCCCCCC[N+](C)(C)CCC[Si](OC)(OC)OC.[Cl-]` [3-(trimethoxysilyl)propyloctadecyldimethyl ammonium chloride], the Deodorant activity [4] is reported as “no improvement over currently available materials was observed”.

In the case of `OO` [hydrogen peroxide], the Deodorant activity [4] is reported as “no improvement over currently available materials was observed”.

For `[H]/N=C(\N/C(=N/[H])NCCCCCCNC(=N)NC(=N)Nc1ccc(Cl)cc1)Nc1ccc(Cl)cc1` [chlorhexidine], the Deodorant activity [4] was “no improvement over currently available materials was observed”.

In the case of `NC1CONC1=O` [L-cycloserine], the “Effect on the growth of Staphylococcus cells in culture” value (Staphylococcus cells) is listed as “no inhibitory effect”.

Source: patent publication US6060043A, “Deodorant composition containing D-amino acid” (The Gillette Company, priority 1998, dated 2000)
